Source: patent US20240376108A1, “SALT AND CRYSTAL FORM OF PYRAZOLE-CONTAINING POLYCYCLIC DERIVATIVE, AND PREPARATION METHOD THEREFOR AND USE THEREOF” (Shanghai Hansoh Biomedical Co., Ltd., priority 2021, published 2024)

Key:
[1] = Solid stability experiment (high temperature, high humidity, high temperature and high humidity); assay type: physicochemical
Protocol: 4.1.1 Experimental objective: To investigate the physical and chemical stability of the crystal form of the compound under the conditions of high temperature, high humidity, as well as high temperature and high humidity, so as to provide a basis for crystal form screening and storage of the crystal form of the compound.
The content of the salt was determined by HPLC using the external standard method, and the change of relevant substances was calculated by using the chromatographic peak area normalization method.

[2] = Pharmacokinetic assay of the salt forms in rats (10 mg/kg); assay type: in vivo; conditions: SD rats; for exposure AUC and maximum plasma concentration Cmax compared with the free base: 10 mg/kg; for AUC(0-t) / MRT inf / half-life / Tmax / Cmax: male, rat, po, p.o. 10 mg/kg, plasma, vehicle 0.5% HPMC; for AUC(0-t): read-out: Area under curve AUC0-t; for MRT inf: read-out: Average residence time MRT0-∞; for half-life: read-out: Half life t1/2 (converted); for Tmax: read-out: Peak time tmax; for Cmax: read-out: Plasma concentration Cmax
Protocol: 2.3 Pharmacokinetic assay of the methanesulfonate in rats
2.3.1. Study objective: SD rats were used as test animals. The pharmacokinetic behavior of various salt forms of 2-(2-cyano-5-oxo-8-(trifluoromethyl)pyrazolo[1,5-a]pyrido[3,2-e]pyrimidin-4(5H)-yl)-N-(5-fluoropyridin-2-yl)acetamide was studied in rat body (plasma) by orally administration at a dose of 10 mg/kg.
2.3.2.4 Administration: After an overnight fast, male SD rats (3 rats per group) were administered p.o. with the test compound at a dose of 10 mg/kg and a volume of 10 mL/kg.
2.3.2.5 Sample collection: 0.2 mL of blood was taken from the jugular vein of the rat before administration and at 0, 0.5, 1, 2, 4, 6, 8 and 24 hours after administration. The samples were stored in EDTA-K2 tubes, and centrifuged for 6 minutes at 4° C., 6000 rpm to separate the plasma. The plasma samples were stored at −80° C.
1) 160 μL of acetonitrile was added to 40 μL of the plasma sample for precipitation, and then the mixture was centrifuged at 3500×g for 5 to 20 minutes.
2) After the above process, 100 μL of the supernatant was taken to analyze the concentration of the test compound by LC/MS/MS.
2.3.2.7 Liquid chromatography analysis • Liquid chromatography condition: Shimadzu LC-20AD pump • Mass spectrometry condition: AB Sciex API 4000 mass spectrometer • Chromatographic column: phenomenex Gemiu 5 um C18 50×4.6 mm • Mobile phase: Eluent A was 0.1% formic acid in water, and Eluent B was acetonitrile • Flow rate: 0.8 mL/min • Elution time: 0-4.0 minutes, the eluent is as follows:
The main parameters of pharmacokinetics were calculated by WinNonlin 8.2.

[3] = Hygroscopicity experiment (DVS); assay type: physicochemical; conditions: 25° C.
Excerpt: 7.1 Hygroscopicity experiment of crystal forms of different salts of compound 2-(2-cyano-5-oxo-8-(trifluoromethyl)pyrazolo[1,5-a]pyrido[3,2-e]pyrimidin-4(5H)-yl)-N-(5-fluoropyridin-2-yl)acetamide
7.1.1 Experimental objective: To investigate the hygroscopicity of crystal forms of different salts of compound 2-(2-cyano-5-oxo-8-(trifluoromethyl)pyrazolo[1,5-a]pyrido[3,2-e]pyrimidin-4(5H)-yl)-N-(5-fluoropyridin-2-yl)acetamide at different relative humidity, so as to provide a basis for storage.
7.1.2 Experimental protocol: Crystal forms of different salts of the compound were placed in saturated water vapor with different relative humidity to achieve dynamic equilibrium between the compound and water vapor, and the percentage of hygroscopic weight gain of the compound after equilibrium was calculated.

[4] = High humidity (92.5% RH), Day 7
[5] = High humidity (92.5% RH), Day 14
[6] = High temperature (60° C.), Day 7
[7] = High temperature (60° C.), Day 14
[8] = High temperature and high humidity (50° C.&75% RH), Day 7
[9] = High temperature and high humidity (50° C.&75% RH), Day 14
[10] = Cycle 1, target relative humidity 0.0%
[11] = Cycle 1, target relative humidity 10.0%
[12] = Cycle 1, target relative humidity 20.0%
[13] = Cycle 1, target relative humidity 30.0%
[14] = Cycle 1, target relative humidity 40.0%
[15] = Cycle 1, target relative humidity 50.0%
[16] = Cycle 1, target relative humidity 60.0%
[17] = Cycle 1, target relative humidity 70.0%
[18] = Cycle 1, target relative humidity 80.0%
[19] = Cycle 1, target relative humidity 90.0%
[20] = Cycle 1, target relative humidity 95.0%
[21] = Cycle 2, target relative humidity 0.0%
[22] = Cycle 2, target relative humidity 10.0%
[23] = Cycle 2, target relative humidity 20.0%
[24] = Cycle 2, target relative humidity 30.0%
[25] = Cycle 2, target relative humidity 40.0%
[26] = Cycle 2, target relative humidity 50.0%
[27] = Cycle 2, target relative humidity 60.0%
[28] = Cycle 2, target relative humidity 70.0%
[29] = Cycle 2, target relative humidity 80.0%
[30] = Cycle 2, target relative humidity 90.0%
[31] = Cycle 2, target relative humidity 95.0%

## CCS(=O)(=O)O.N#Cc1cc2n(CC(=O)Nc3ccc(F)cn3)c(=O)c3ccc(C(F)(F)F)nc3n2n1 [Ethanesulfonate (crystal form A), 2-(2-cyano-5-oxo-8-(trifluoromethyl)pyrazolo[1,5-a]pyrido[3,2-e]pyrimidin-4(5H)-yl)-N-(5-fluoropyridin-2-yl)acetamide ethanesulfonate]
[1]; 60° C., 7 and 14 days
  solid stability under high temperature: stable
[1]; 92.5% RH, 7 and 14 days
  solid stability under high humidity: stable
[1]; [4]
  % increase of total impurities: <0.1%
  % maximum increase of single impurity: <0.1%
[1]; [5]
  % increase of total impurities: <0.1%
  % maximum increase of single impurity: <0.1%
[1]; [6]
  % increase of total impurities: >0.2%
  % maximum increase of single impurity: <0.1%
[1]; [7]
  % increase of total impurities: <0.1%
  % maximum increase of single impurity: <0.1%
[1]; [8]
  % increase of total impurities: >0.3%
  % maximum increase of single impurity: >0.1%
[1]; [9]
  % increase of total impurities: >0.2%
  % maximum increase of single impurity: >0.1%
[2]
  exposure AUC and maximum plasma concentration Cmax compared with the free base: superior
  AUC(0-t): 30300 ng·h/mL
  MRT inf: 4.9 h
  half-life: 2.6 h
  Tmax: 4 h
  Cmax: 3840 ng/mL
[3]; [10]
  % percentage of mass change, Desorption: −0.012%
  % percentage of mass change, Sorption: 0.000%
[3]; [11]
  % percentage of mass change, Desorption: 0.042%
  % percentage of mass change, Sorption: 0.051%
[3]; [12]
  % percentage of mass change, Desorption: 0.090%
  % percentage of mass change, Sorption: 0.094%
[3]; [13]
  % percentage of mass change, Desorption: 0.137%
  % percentage of mass change, Sorption: 0.139%
[3]; [14]
  % percentage of mass change, Desorption: 0.192%
  % percentage of mass change, Sorption: 0.183%
[3]; [15]
  % percentage of mass change, Desorption: 0.260%
  % percentage of mass change, Sorption: 0.231%
[3]; [16]
  % percentage of mass change, Desorption: 0.334%
  % percentage of mass change, Sorption: 0.297%
[3]; [17]
  % percentage of mass change, Desorption: 0.442%
  % percentage of mass change, Sorption: 0.401%
[3]; [18]
  % percentage of mass change, Desorption: 0.625%
  % percentage of mass change, Sorption: 0.572%
[3]; [19]
  % percentage of mass change, Desorption: 1.135%
  % percentage of mass change, Sorption: 1.025%
[3]; [20]
  % percentage of mass change, Desorption: 1.927%
  % percentage of mass change, Sorption: 1.927%
[3]; [21]
  % percentage of mass change, Desorption: −0.016%
  % percentage of mass change, Sorption: −0.012%
[3]; [22]
  % percentage of mass change, Desorption: 0.035%
  % percentage of mass change, Sorption: 0.037%
[3]; [23]
  % percentage of mass change, Desorption: 0.083%
  % percentage of mass change, Sorption: 0.083%
[3]; [24]
  % percentage of mass change, Desorption: 0.130%
  % percentage of mass change, Sorption: 0.127%
[3]; [25]
  % percentage of mass change, Desorption: 0.184%
  % percentage of mass change, Sorption: 0.174%
[3]; [26]
  % percentage of mass change, Desorption: 0.250%
  % percentage of mass change, Sorption: 0.228%
[3]; [27]
  % percentage of mass change, Desorption: 0.321%
  % percentage of mass change, Sorption: 0.295%
[3]; [28]
  % percentage of mass change, Desorption: 0.421%
  % percentage of mass change, Sorption: 0.388%
[3]; [29]
  % percentage of mass change, Desorption: 0.584%
  % percentage of mass change, Sorption: 0.541%
[3]; [30]
  % percentage of mass change, Desorption: 1.020%
  % percentage of mass change, Sorption: 0.942%
[3]; [31]
  % percentage of mass change, Desorption: 1.683%
  % percentage of mass change, Sorption: 1.683%

## Br.N#Cc1cc2n(CC(=O)Nc3ccc(F)cn3)c(=O)c3ccc(C(F)(F)F)nc3n2n1 [Hydrobromide (crystal form B), 2-(2-cyano-5-oxo-8-(trifluoromethyl)pyrazolo[1,5-a]pyrido[3,2-e]pyrimidin-4(5H)-yl)-N-(5-fluoropyridin-2-yl)acetamide hydrobromide]
[2]
  exposure AUC and maximum plasma concentration Cmax compared with the free base: superior
  AUC(0-t): 16800 ng·h/mL
  MRT inf: 4.4 h
  half-life: 2.6 h
  Tmax: 1 h
  Cmax: 2470 ng/mL
[3]; [14]
  % percentage of mass change, Desorption: 4.247%
  % percentage of mass change, Sorption: 4.140%
[3]; [15]
  % percentage of mass change, Desorption: 4.359%
  % percentage of mass change, Sorption: 4.233%
[3]; [16]
  % percentage of mass change, Desorption: 4.448%
  % percentage of mass change, Sorption: 4.321%
[3]; [17]
  % percentage of mass change, Desorption: 4.532%
  % percentage of mass change, Sorption: 4.415%
[3]; [18]
  % percentage of mass change, Desorption: 4.627%
  % percentage of mass change, Sorption: 4.529%
[3]; [19]
  % percentage of mass change, Desorption: 4.787%
  % percentage of mass change, Sorption: 4.715%
[3]; [20]
  % percentage of mass change, Desorption: 4.947%
  % percentage of mass change, Sorption: 4.947%
[3]; [21]
  % percentage of mass change, Desorption: −0.019%
  % percentage of mass change, Sorption: −0.007%
[3]; [22]
  % percentage of mass change, Desorption: 0.124%
  % percentage of mass change, Sorption: 0.070%
[3]; [23]
  % percentage of mass change, Desorption: 0.220%
  % percentage of mass change, Sorption: 0.153%
[3]; [24]
  % percentage of mass change, Desorption: 3.962%
  % percentage of mass change, Sorption: 3.900%
[3]; [25]
  % percentage of mass change, Desorption: 4.112%
  % percentage of mass change, Sorption: 4.030%
